Test results reported in patent publication US4713381A, “Oxodiazine compounds and pharmaceutical compositions thereof” (Yoshitomi Pharmaceutical Industries, Ltd., priority 1985, dated 1987).
Converted amounts (≈) assume the structure as drawn. Read-outs that look alike come from different tables or passages of the source.

What was measured:
platelet aggregation [1] = experiment: Effects on platelet aggregation in vitro (ADP-induced, rat platelet-rich plasma, Born type aggregometer); format: cell-based, rats; conditions: 2 min, read-out: 50% inhibitory concentrations (IC50)
Method: 1. Effects on platelet aggregation in vitro
Samples of blood are collected from rats weighing 400-450 g and mixed with a 1/10 volume of 3.8% sodium citrate solution. The citrated blood is centrifugated at 200×g for 10 minutes to yield platelet-rich plasma. Test compound is added to platelet-rich plasma thus obtained and maintained at 37° C. for 2 minutes. The platelet aggregation is induced by the addition of 10^-5 M adenosine diphosphate (final concentration) and measured with a Born type six channel aggregometer (Journal of Physiology, vol. 168, pp. 175-198, 1963.
50% inhibitory concentrations (IC50, μg/ml) as compared the control group are calculated. Aspirin and ticlopidine are employed as compounds for comparison.

platelet aggregation [2] = experiment: Effects on platelet aggregation ex vivo (ADP-induced, rat platelet-rich plasma 2 hours after oral administration); format: in vivo; conditions: p.o., rats, after 2 hours, 10^-5 M adenosine diphosphate
Method: 2. Effects on platelet aggregation ex vivo
Test compound is orally administered to rats weighing 400-450 g. After 2 hours, samples of blood are collected from the rats and mixed with a 1/10 volume of 3.8% sodium citrate solution. The citrated blood is centrifugated at 200×g for 10 minutes to yield platelet-rich plasma. The platelet aggregation is induced by the addition of 10^-5 M adenosine diphosphate (final concentration) and measured with the same aggregometer as described in the above Method.
Percentage of inhibition as compared with the control group administered with the solvent are calculated.

[3] = rat platelet-rich plasma, 37° C., 2 minutes, 10^-5 M adenosine diphosphate

Compound	IC50 (platelet aggregation [1]; Rattus norvegicus, Platelet)	IC50 (platelet aggregation [1]; [3])	inhibition at 10 mg/kg (platelet aggregation [2])
CC(=O)Oc1ccccc1C(=O)O [Aspirin, reference compound]	> 300 µg/mL		
Cc1nc2ccccn2c1C1=NNC(=O)CO1 [Example 1, 2-(2-methylimidazo[1,2-a]pyridin-3-yl)-4,6-dihydro-1,3,4-oxadiazin-5-one]		1 µg/mL (≈ 4.34 µM)	75%
Cc1nc2c(C)cccn2c1C1=NNC(=O)CO1 [Example 2, 2-(2,8-dimethylimidazo[1,2-a]pyridin-3-yl)-4,6-dihydro-1,3,4-oxadiazin-5-one]		1.9 µg/mL (≈ 7.78 µM)	
Cc1ccc2nc(C)c(C3=NNC(=O)CO3)n2c1 [Example 3, 2-(2,6-dimethylimidazo[1,2-a]pyridin-3-yl)-4,6-dihydro-1,3,4-oxadiazin-5-one]		3 µg/mL (≈ 12.3 µM)	
Cc1nc2sccn2c1C1=NNC(=O)CO1 [Example 5, 2-(6-methylimidazo[2,1-b]thiazol-5-yl)-4,6-dihydro-1,3,4-oxadiazin-5-one]		0.5 µg/mL (≈ 2.12 µM)	54%
O=C1COC(c2csc3nccn23)=NN1 [Example 16, 2-(Imidazo[2,1-b]thiazol-3-yl)-4,6-dihydro-1,3,4-oxadiazin-5-one]			60%
Cc1c(C2=NNC(=O)CO2)sc2nccn12 [Example 17, 2-(3-Methylimidazo[2,1-b]thiazol-2-yl)-4,6-dihydro-1,3,4-oxadiazin-5-one]		0.6 µg/mL (≈ 2.54 µM)	54%
O=C1COC(c2ccc3nccn3c2)=NN1 [Example 18, 2-(Imidazo[1,2-a]pyridin-6-yl)-4,6-dihydro-1,3,4-oxadiazin-5-one]		0.4 µg/mL (≈ 1.85 µM)	65%
Cl.O=C1COC(c2cccn3ccnc23)=NN1 [Example 19, 2-(Imidazo[1,2-a]pyridin-8-yl)-4,6-dihydro-1,3,4-oxadiazin-5-one hydrochloride]	1 µg/mL		
Clc1ccccc1CN1CCc2sccc2C1 [Ticlopidine, ticlopidine, reference compound]		> 300 µg/mL	
